From the CheMixHub ionic liquid set

Test: xn = mol fraction of the nth substance listed

CC[n+]1ccn(C)c1.O=S(=O)([O-])C(F)(F)F + CC1COC(=O)O1
101 kPa
Settings | viscosity [mPa·s]
288.15 K, x1 = 0.3005 | 10.78
288.15 K, x1 = 0.3998 | 14.62
288.15 K, x1 = 0.5001 | 18.7
293.15 K, x1 = 0.0999 | 5.28
293.15 K, x1 = 0.8004 | 32.5
298.15 K, x1 = 0.8004 | 27.2
298.15 K, x1 = 0.8998 | 32.5
298.15 K, x1 = 1 | 40.4
303.15 K, x1 = 0.0999 | 3.91
303.15 K, x1 = 0.3998 | 8.9
303.15 K, x1 = 0.6987 | 18.4
303.15 K, x1 = 1 | 34
308.15 K, x1 = 0.5001 | 9.9
313.15 K, x1 = 0.8998 | 20.4
313.15 K, x1 = 1 | 24.9
318.15 K, x1 = 0.1999 | 3.52
318.15 K, x1 = 0.3005 | 4.44
318.15 K, x1 = 0.3998 | 5.86
318.15 K, x1 = 0.5001 | 7.69
318.15 K, x1 = 0.8998 | 17.7
323.15 K, x1 = 0.6987 | 10.72
323.15 K, x1 = 0.8998 | 15.47
328.15 K, x1 = 0.1999 | 2.81
328.15 K, x1 = 0.3005 | 3.48
328.15 K, x1 = 0.3998 | 4.58
328.15 K, x1 = 0.5001 | 6.16
328.15 K, x1 = 0.601 | 7.77
333.15 K, x1 = 0.3005 | 3.14
333.15 K, x1 = 0.6987 | 8.51
333.15 K, x1 = 0.8004 | 10.43
338.15 K, x1 = 0.601 | 6.33
338.15 K, x1 = 0.8004 | 9.21
343.15 K, x1 = 0.0999 | 1.74
343.15 K, x1 = 0.3998 | 3.35
353.15 K, x1 = 0.3005 | 2.29
353.15 K, x1 = 0.8998 | 8.38
353.15 K, x1 = 1 | 9.49

CC[N+](CC)(CC)CC.O=S(=O)([O-])C(F)(F)F + CC#N
100 kPa
Settings | electrical conductivity [S/m]
293.15 K, x1 = 0.02 | 2.56
293.15 K, x1 = 0.05 | 4.03
298.15 K, x1 = 0.0997 | 4.87
308.15 K, x1 = 0.1498 | 4.75
318.15 K, x1 = 0.05 | 4.94
318.15 K, x1 = 0.2995 | 3.89
323.15 K, x1 = 0.2995 | 4.16
333.15 K, x1 = 0.2 | 5.43
333.15 K, x1 = 0.25 | 4.96
333.15 K, x1 = 0.2995 | 4.73
348.15 K, x1 = 0.02 | 3.67
348.15 K, x1 = 0.08 | 6.89
348.15 K, x1 = 0.1498 | 6.97

CC[n+]1ccn(C)c1.O=S(=O)([O-])C(F)(F)F + CC#N
viscosity [mPa·s], 100 kPa
Settings | 298.15 K | 303.15 K | 308.15 K | 313.15 K | 318.15 K | 323.15 K
x1 = 0.3948 | 4.5 | 4.1 | 3.8 | 3.5 | – | –
x1 = 0.498 | 7.4 | 6.6 | 6 | 5.4 | 4.9 | 4.4
x1 = 0.595 | – | 9.5 | 8.4 | 7.5 | 6.7 | 6
x1 = 0.6936 | – | – | – | – | 9.5 | 8.3
x1 = 0.9005 | 34 | – | – | – | – | –
x1 = 1 | 46 | 38 | – | – | – | –

CCc1n(S(=O)(=O)O)cc[n+]1S(=O)(=O)O.O=C([O-])C(F)(F)F + CC#N
101 kPa
Settings | electrical conductivity [S/m]
278.15 K, x1 = 0.02551 | 1.22
283.15 K, x1 = 0.02551 | 1.21
288.15 K, x1 = 0.02551 | 1.2
293.15 K, x1 = 0.02551 | 1.11
298.15 K, x1 = 0.0052 | 0.323
298.15 K, x1 = 0.0104 | 0.517
298.15 K, x1 = 0.0155 | 0.736
298.15 K, x1 = 0.0205 | 0.989
298.15 K, x1 = 0.0255 | 1.11
298.15 K, x1 = 0.02551 | 1.11
303.15 K, x1 = 0.02551 | 0.823
308.15 K, x1 = 0.02551 | 0.824
313.15 K, x1 = 0.02551 | 0.816
318.15 K, x1 = 0.02551 | 0.767
323.15 K, x1 = 0.02551 | 0.755
328.15 K, x1 = 0.02551 | 0.689
333.15 K, x1 = 0.02551 | 0.652

C[n+]1ccn(CCCC#N)c1.F[B-](F)(F)F + CC#N
100 kPa
Settings | electrical conductivity [S/m]
288.15 K, x1 = 0.5996 | 0.36
293.15 K, x1 = 0.4999 | 0.69
293.15 K, x1 = 0.5996 | 0.47
303.15 K, x1 = 0.4999 | 1
303.15 K, x1 = 0.8885 | 0.31
308.15 K, x1 = 0.7001 | 0.72
323.15 K, x1 = 0.8024 | 0.87

Cc1n(S(=O)(=O)O)cc[n+]1S(=O)(=O)O.O=C([O-])C(F)(F)F + CC#N
101 kPa
Settings | electrical conductivity [S/m]
278.15 K, x1 = 0.02551 | 1.39
283.15 K, x1 = 0.02551 | 1.36
288.15 K, x1 = 0.02551 | 1.3
293.15 K, x1 = 0.02551 | 1.29
298.15 K, x1 = 0.0052 | 0.351
298.15 K, x1 = 0.0104 | 0.528
298.15 K, x1 = 0.0155 | 0.698
298.15 K, x1 = 0.0205 | 1.04
298.15 K, x1 = 0.0255 | 1.26
298.15 K, x1 = 0.02551 | 1.26
303.15 K, x1 = 0.02551 | 1.2
308.15 K, x1 = 0.02551 | 1.15
313.15 K, x1 = 0.02551 | 1.1
318.15 K, x1 = 0.02551 | 1.09
323.15 K, x1 = 0.02551 | 1.08
328.15 K, x1 = 0.02551 | 0.706
333.15 K, x1 = 0.02551 | 0.616

O=C([O-])C(F)(F)F.O=S(=O)(O)n1cc[n+](S(=O)(=O)O)c1 + CC#N
101 kPa
Settings | electrical conductivity [S/m]
278.15 K, x1 = 0.02551 | 1.83
283.15 K, x1 = 0.02551 | 1.78
288.15 K, x1 = 0.02551 | 1.62
293.15 K, x1 = 0.02551 | 1.59
298.15 K, x1 = 0.0052 | 0.305
298.15 K, x1 = 0.0104 | 0.52
298.15 K, x1 = 0.0155 | 0.949
298.15 K, x1 = 0.0205 | 1.15
298.15 K, x1 = 0.0255 | 1.54
298.15 K, x1 = 0.02551 | 1.54
298.15 K, x1 = 0.05 | 2.02
303.15 K, x1 = 0.02551 | 1.27
308.15 K, x1 = 0.02551 | 1.25
313.15 K, x1 = 0.02551 | 1.25
318.15 K, x1 = 0.02551 | 1.25
323.15 K, x1 = 0.02551 | 0.803
328.15 K, x1 = 0.02551 | 0.486
333.15 K, x1 = 0.02551 | 0.401

O=c1cc[nH]c(=O)[nH]1 + CC(=O)[O-].CC[n+]1ccn(C)c1
Settings | viscosity [mPa·s]
298.15 K, 100 kPa, x1 = 0.233 | 773

CC[n+]1ccn(C)c1.O=S(=O)([O-])C(F)(F)F + CCC(C)O
101 kPa
Settings | viscosity [mPa·s]
298.15 K, x1 = 0.7986 | 30.77
298.15 K, x1 = 1 | 45.67
303.15 K, x1 = 0.3938 | 6.96
303.15 K, x1 = 0.4988 | 9.31
303.15 K, x1 = 0.5952 | 13.31
303.15 K, x1 = 0.7986 | 26.05
308.15 K, x1 = 0.3938 | 6.16
308.15 K, x1 = 0.903 | 28.15
313.15 K, x1 = 0.1945 | 3.63
313.15 K, x1 = 0.4988 | 7.33
313.15 K, x1 = 0.5952 | 10.28
313.15 K, x1 = 0.6907 | 14.61
313.15 K, x1 = 1 | 27.68
318.15 K, x1 = 0.4988 | 6.57
318.15 K, x1 = 0.903 | 20.96
323.15 K, x1 = 0.6907 | 11.38
323.15 K, x1 = 0.903 | 18.3

CCCCCCCCCCCCCC[P+](CCCCCC)(CCCCCC)CCCCCC.N#C[N-]C#N + CCCCCCCCCCCC
101 kPa
Settings | viscosity [mPa·s]
303.15 K, x1 = 1 | 328
308.15 K, x1 = 0.5534 | 90
313.15 K, x1 = 0.736 | 112
323.15 K, x1 = 0.5534 | 47.4
323.15 K, x1 = 0.736 | 72.7
323.15 K, x1 = 1 | 123
328.15 K, x1 = 0.5534 | 39.2
328.15 K, x1 = 0.736 | 60
343.15 K, x1 = 0.5534 | 24.2
353.15 K, x1 = 1 | 41

CCCCC[N+](CCCCC)(CCCCC)CCCCC.[Br-] + CCCCCCCCCCCCOS(=O)(=O)[O-].[Na+] + O
viscosity [mPa·s], 100 kPa
Settings | x2 = 1.81e-06, x1 = 0.0001802 | x2 = 3.62e-06, x1 = 0.0001802 | x2 = 5.43e-06, x1 = 0.0001802 | x2 = 7.23e-06, x1 = 0.0001802 | x2 = 9.04e-06, x1 = 0.0001802 | x2 = 1.085e-05, x1 = 0.0001802 | x2 = 1.266e-05, x1 = 0.0001802 | x2 = 1.447e-05, x1 = 0.0001802 | x2 = 1.628e-05, x1 = 0.0001802 | x2 = 1.808e-05, x1 = 0.0001802
293.15 K | 1.024 | 1.026 | 1.027 | 1.028 | 1.028 | 1.029 | 1.029 | 1.029 | 1.03 | 1.03
298.15 K | 0.914 | 0.916 | 0.917 | 0.917 | 0.919 | 0.92 | 0.921 | 0.921 | 0.922 | 0.922
303.15 K | 0.8 | 0.801 | 0.802 | 0.803 | 0.803 | 0.803 | 0.803 | 0.803 | 0.804 | 0.805
308.15 K | 0.723 | 0.723 | 0.724 | 0.724 | 0.724 | 0.724 | 0.725 | 0.725 | 0.726 | 0.726
313.15 K | 0.658 | 0.659 | 0.66 | 0.66 | 0.661 | 0.661 | 0.661 | 0.661 | 0.662 | 0.662
318.15 K | 0.604 | 0.605 | 0.605 | 0.605 | 0.606 | 0.606 | 0.606 | 0.606 | 0.606 | 0.606
